These results are taken from US8686184B2, “Neprilysin inhibitors” (Theravance, Inc., priority 2011, dated 2014).

T1 sequence (P08473 52-750 limits assumed): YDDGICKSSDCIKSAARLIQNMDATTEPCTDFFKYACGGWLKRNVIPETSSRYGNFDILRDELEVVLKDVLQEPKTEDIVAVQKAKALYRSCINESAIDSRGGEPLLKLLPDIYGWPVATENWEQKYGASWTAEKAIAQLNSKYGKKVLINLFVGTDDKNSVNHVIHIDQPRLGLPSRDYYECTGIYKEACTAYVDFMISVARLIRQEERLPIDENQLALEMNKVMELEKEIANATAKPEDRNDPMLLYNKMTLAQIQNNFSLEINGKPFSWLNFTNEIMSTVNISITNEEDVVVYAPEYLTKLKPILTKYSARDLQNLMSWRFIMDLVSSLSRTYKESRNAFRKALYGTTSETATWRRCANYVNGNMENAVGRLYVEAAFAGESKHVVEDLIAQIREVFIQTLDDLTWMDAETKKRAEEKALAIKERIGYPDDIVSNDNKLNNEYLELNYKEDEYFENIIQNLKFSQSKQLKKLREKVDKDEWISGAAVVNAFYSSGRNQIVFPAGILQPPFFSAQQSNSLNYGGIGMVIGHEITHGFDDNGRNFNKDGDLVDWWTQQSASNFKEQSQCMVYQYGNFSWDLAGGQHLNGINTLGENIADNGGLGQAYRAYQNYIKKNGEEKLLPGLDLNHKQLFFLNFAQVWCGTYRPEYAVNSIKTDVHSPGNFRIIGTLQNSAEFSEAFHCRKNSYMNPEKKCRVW

This test addresses T1, human neprilysin (EC 3.4.24.11; NEP) (Homo sapiens, UniProt P08473).
T1 construct: purchased R&D Systems, Minneapolis, Minn; 1182-ZN
As to the kind of experiment: In vitro enzyme inhibition assay at human NEP (fluorogenic peptide substrate). Type of test: biochemical. The settings on record: recombinant human NEP; 37° C.; substrate Mca-D-Arg-Arg-Leu-Dap-(Dnp)-OH 10 μM; values given as ranges; read-out: pKi values at human NEP (converted). How it is done:
In vitro Assays for the Quantitation of Inhibitor Potencies at Human and Rat NEP, and Human ACE
The inhibitory activities of compounds at human and rat neprilysin (EC 3.4.24.11; NEP) and human angiotensin converting enzyme (ACE) were determined using in vitro assays as described below.
Recombinant human NEP and recombinant human ACE were obtained commercially (R&D Systems, Minneapolis, Minn., catalog numbers 1182-ZN and 929-ZN, respectively). The fluorogenic peptide substrate Mca-D-Arg-Arg-Leu-Dap-(Dnp)-OH (Medeiros et al. (1997) Braz. J. Med. Biol. Res. 30:1157-62; Anaspec, San Jose, Calif.) and Abz-Phe-Arg-Lys(Dnp)-Pro-OH (Araujo et al. (2000) Biochemistry 39:8519-8525; Bachem, Torrance, Calif.) were used in the NEP and ACE assays respectively.
The assays were performed in 384-well white opaque plates at 37° C. using the fluorogenic peptide substrates at a concentration of 10 μM in Assay Buffer (NEP: 50 mM HEPES, pH 7.5, 100 mM NaCl, 0.01% polyethylene glycol sorbitan monolaurate (Tween-20), 10 μM ZnSO4; ACE: 50 mM HEPES, pH 7.5, 100 mM NaCl, 0.01% Tween-20, 1 μM ZnSO4).
Test compounds were assayed over the range of concentrations from 10 μM to 20 pM. Test compounds were added to the enzymes and incubated for 30 minute at 37° C. prior to initiating the reaction by the addition of substrate. Reactions were terminated after 20 minutes of incubation at 37° C. by the addition of glacial acetic acid to a final concentration of 3.6% (v/v).
Plates were read on a fluorometer with excitation and emission wavelengths set to 320 nm and 405 nm, respectively Inhibition constants were obtained by nonlinear regression of the data using the equation (GraphPad Software, Inc., San Diego, Calif.): v=v0/[1+(I/K′)] where v is the reaction rate, v0 is the uninhibited reaction rate, I is the inhibitor concentration and K′ is the apparent inhibition constant.
Compounds of the invention were tested in this assay and found to have pKi values at human NEP as follows.
`CC(C)c1ccc(C(=O)N[C@H](Cc2ccccc2)[C@@H](O)C(=O)O)cc1-c1ccccc1C(=O)O` [Example 10-17, 5′-((1R,2R)-1-Benzyl-2-carboxy-2-hydroxy-ethylcarbamoyl)-2′-isopropyl-biphenyl-2-carboxylic acid]: the Ki was 1.26 to 10 nM.

Consider `CC(C)c1ccc(C(=O)N[C@H](Cc2ccccc2)[C@@H](O)C(=O)O)cc1Br` [Example 10-55, (2R,3R)-3-(3-Bromo-4-isopropyl-benzoylamino)-2-hydroxy-4-phenyl-butyric acid], for which the Ki is 12.6 to 100 nM. Turning to `Cc1cc(C)n(-c2cc(C(=O)N[C@H](Cc3ccccc3)[C@@H](O)C(=O)O)ccc2C)n1` [Example 10-7, (2R,3R)-3-[3-(3,5-Dimethylpyrazol-1-yl)-4-methylbenzoylamino]-2-hydroxy-4-phenyl-butyric acid], the Ki is 12.6 to 100 nM. As for `CCc1ccc(C(=O)N[C@H](Cc2ccccc2)[C@@H](O)C(=O)O)cc1NC(=O)c1ccccn1` [Example 10-70, (2R,3R)-3-{4-Ethyl-3-[(pyridine-2-carbonyl)-amino]-benzoylamino}-2-hydroxy-4-phenyl-butyric acid], the figure is 12.6 to 100 nM; as for `CC(C)c1ccc(C(=O)N[C@H](Cc2ccccc2)[C@@H](O)C(=O)O)cc1-c1cccc(C(=O)N(C)C)c1` [Example 10-81, (2R,3R)-3-[(3′-Dimethylcarbamoyl-6-isopropyl-biphenyl-3-carbonyl)-amino]-2-hydroxy-4-phenyl-butyric acid], 12.6 to 100 nM; as for `CCCCNC(=O)Nc1cc(C(=O)N[C@H](Cc2ccccc2)[C@@H](O)C(=O)O)ccc1CC` [Example 10-73, (2R,3R)-3-[3-(3-Butyl-ureido)-4-ethyl-benzoylamino]-2-hydroxy-4-phenyl-butyric acid], 12.6 to 100 nM. Consider `Cc1ccc(C(=O)N[C@H](Cc2ccccc2Cl)[C@H](O)C(=O)O)cc1-c1ccccc1C(=O)O` [Example 6-5, 5′-[(1R,2S)-2-Carboxy-1-(2-chlorobenzyl)-2-hydroxy-ethylcarbamoyl]-2′-methyl-biphenyl-2-carboxylic acid], for which the Ki was 12.6 to 100 nM. To `Cc1ccc(C(=O)N[C@H](Cc2ccccc2)[C@@H](O)C(=O)O)cc1-c1ccccc1CC(=O)O` [Example 10-20, (2R,3R)-3-[(2′-Carboxymethyl-6-methyl-biphenyl-3-carbonyl)-amino]-2-hydroxy-4-phenyl-butyric acid] belongs 12.6 to 100 nM; to `O=C(O)CCc1cccc(C(=O)N[C@H](Cc2ccccc2)[C@@H](O)C(=O)O)c1` [Example 10-59, (2R,3R)-3-[3-(2-Carboxy-ethyl)-benzoylamino]-2-hydroxy-4-phenyl-butyric acid], 12.6 to 100 nM; to `Cc1cc(C)n(-c2cc(C(=O)N[C@H](Cc3ccccc3)[C@@H](O)C(=O)O)ccc2F)n1` [Example 10-6, (2R,3R)-3-[3-(3,5-Dimethylpyrazol-1-yl)-4-fluorobenzoylamino]-2-hydroxy-4-phenyl-butyric acid], 12.6 to 100 nM. For the compound `O=C(N[C@H](Cc1ccccc1)[C@@H](O)C(=O)O)c1cccc(-c2cccc(-c3nnn[nH]3)c2)c1` [Example 10-31, (2R,3R)-2-Hydroxy-4-phenyl-3-{[3′-(1H-tetrazol-5-yl)-biphenyl-3-carbonyl]-amino}-butyric acid], the Ki is 12.6 to 100 nM. Regarding `O=C(N[C@H](Cc1ccccc1)[C@@H](O)C(=O)O)c1cccc(-c2cccnc2C(=O)O)c1` [Example 10-64, 3-[3-((1R,2R)-1-Benzyl-2-carboxy-2-hydroxy-ethylcarbamoyl)-phenyl]-pyridine-2-carboxylic acid], the Ki is 12.6 to 100 nM.

Consider `CC1=NN(c2ccc(C(=O)N[C@H](Cc3ccccc3Cl)[C@H](O)C(=O)O)cc2)C(=O)C1` [Example 6-15, (2S,3R)-4-(2-Chlorophenyl)-2-hydroxy-3-[4-(3-methyl-5-oxo-4,5-dihydro-pyrazol-1-yl)-benzoylamino]-butyric acid], for which the Ki is 1.26 to 10 nM. Regarding `CCc1ccc(C(=O)N[C@H](Cc2ccccc2)[C@@H](O)C(=O)O)cc1NC(=O)c1cccnc1` [Example 10-69, (2R,3R)-3-{4-Ethyl-3-[(pyridine-3-carbonyl)-amino]-benzoylamino}-2-hydroxy-4-phenyl-butyric acid], the Ki is 12.6 to 100 nM.

`CCCC1=NN(c2cccc(C(=O)N[C@@H](CC(=O)O)Cc3ccccc3Cl)c2)C(=O)C1` [Example 13-9, (R)-4-(2-Chlorophenyl)-3-[3-(5-oxo-3-propyl-4,5-dihydro-pyrazol-1-yl)-benzoylamino]-butyric acid]: the Ki was 12.6 to 100 nM. Turning to `Cc1ccc(C(=O)N[C@H](Cc2ccccc2)[C@@H](O)C(=O)O)cc1-c1ccccc1C(=O)O` [Example 10-15, 5′-((1R,2R)-1-Benzyl-2-carboxy-2-hydroxy-ethylcarbamoyl)-2′-methyl-biphenyl-2-carboxylic acid], the Ki was 1.26 to 10 nM.

For the compound `CCCCC(=O)Nc1cc(C(=O)N[C@H](Cc2ccccc2)[C@@H](O)C(=O)O)ccc1CC` [Example 10-66, (2R,3R)-3-(4-Ethyl-3-pentanoylamino-benzoylamino)-2-hydroxy-4-phenyl-butyric acid], the Ki is 12.6 to 100 nM. With `O=C(N[C@H](Cc1ccccc1Cl)[C@@H](O)C(=O)O)c1ccc(Cl)c(-c2ccccc2C(=O)O)c1` [Example 6-3, 5′-[(1R,2R)-2-Carboxy-1-(2-chlorobenzyl)-2-hydroxy-ethylcarbamoyl]-2′-chloro-biphenyl-2-carboxylic acid], the Ki was not above 1 nM. To `O=C(N[C@H](Cc1ccccc1Cl)[C@@H](O)C(=O)O)c1cc(Cl)cc(-c2ccccc2C(=O)O)c1` [Example 6-2, 5′-[(1R,2R)-2-Carboxy-1-(2-chlorobenzyl)-2-hydroxy-ethylcarbamoyl]-3′-chloro-biphenyl-2-carboxylic acid] belongs not above 1 nM. As for `O=C(O)Cc1ccccc1-c1cccc(C(=O)N[C@@H](CC(=O)O)Cc2ccccc2Cl)c1` [Example 13-1, (R)-3-[(2′-Carboxymethyl-biphenyl-3-carbonyl)-amino]-4-(2-chloro-phenyl)-butyric acid], the figure is 12.6 to 100 nM. With `CCc1ccc(C(=O)N[C@H](Cc2ccccc2)[C@@H](O)C(=O)O)cc1NC(=O)Nc1sc(C)cc1C(=O)O` [Example 10-77, 2-{3-[5-((1R,2R)-1-Benzyl-2-carboxy-2-hydroxy-ethylcarbamoyl)-2-ethyl-phenyl]-ureido}-5-methyl-thiophene-3-carboxylic acid], the Ki was not above 1 nM. As for `CCc1ccc(C(=O)N[C@H](Cc2ccccc2)[C@@H](O)C(=O)O)cc1NC(=O)c1ccncc1` [Example 10-71, (2R,3R)-3-{4-Ethyl-3-[(pyridine-4-carbonyl)-amino]-benzoylamino}-2-hydroxy-4-phenyl-butyric acid], the figure is 12.6 to 100 nM; as for `O=C(N[C@H](Cc1ccccc1)[C@@H](O)C(=O)O)c1ccc(CCn2ccnc2)cc1` [Example 10-47, (2R,3R)-2-Hydroxy-3-[4-(2-imidazol-1-yl-ethyl)-benzoylamino]-4-phenyl-butyric acid], 12.6 to 100 nM; as for `Cc1ccc(C(=O)N[C@@H](CC(=O)O)Cc2ccccc2Cl)cc1-c1ccccc1CC(=O)O` [Example 13-3, (R)-3-[(2′-Carboxymethyl-6-methyl-biphenyl-3-carbonyl)-amino]-4-(2-chloro-phenyl)-butyric acid], 1.26 to 10 nM. To `O=C(N[C@H](Cc1ccccc1)[C@@H](O)C(=O)O)c1cccc(-c2ccccc2C(=O)O)c1` [Example 10-9, 3′-((1R,2R)-1-Benzyl-2-carboxy-2-hydroxy-ethylcarbamoyl)-biphenyl-2-carboxylic acid] belongs 12.6 to 100 nM; to `O=C(N[C@H](Cc1ccccc1)[C@@H](O)C(=O)O)c1cccc(-c2ccc(F)cc2C(=O)O)c1` [Example 10-10, 3′-((1R,2R)-1-Benzyl-2-carboxy-2-hydroxy-ethylcarbamoyl)-4-fluoro-biphenyl-2-carboxylic acid], 12.6 to 100 nM; to `CCc1ccc(C(=O)N[C@H](Cc2ccccc2Cl)[C@@H](O)C(=O)O)cc1-n1c(=O)[nH]c2sc(C)cc2c1=O` [Example 4, (2R,3R)-4-(2-Chlorophenyl)-3-[4-ethyl-3-(6-methyl-2,4-dioxo-1,4-dihydro-2H-thieno[2,3-d]pyrimidin-3-yl)-benzoylamino]-2-hydroxy-butyric Acid], not above 1 nM. Consider `Cc1ccc(C(=O)N[C@H](Cc2ccccc2)[C@@H](O)C(=O)O)cc1-n1ccc(C(=O)O)n1` [Example 10-8, 1-[5-((1R,2R)-1-Benzyl-2-carboxy-2-hydroxyethylcarbamoyl)-2-methyl-phenyl]-1H-pyrazole-3-carboxylic acid], for which the Ki was 12.6 to 100 nM.
